One compound from patent publication US9572890B2, “Oral formulations of mitochondrially-targeted antioxidants and their preparation and use” (MITOTECH SA, priority 2011, dated 2017) can be followed below.

One assay relates to alloxan diabetes. The experiment in a line: Alloxan diabetes, blood glucose level (glucose oxidase method). The assay is classed as in vivo, rats. The conditions noted are these: 250 nM SkQ1 in drinking water (approx. 50 nmol/kg per day) 10 d before and 14 d after alloxan 100 mg/kg s.c.; 2 weeks after alloxan. How it is done:
Induction of the alloxan diabetes was performed as follows: Two groups of laboratory rats (20 animals in each group) with free food and water access fed a 250 nM solution of SkQ1 for 10 d. The daily rat consumption was 60 ml water solution (containing 15 nmoles SkQ1). The average weight of rats was 300 g. Thus, rats consumed approximately 50 nmol/kg body weight per day. […] After 10 d, rats were subcutaneously (in the area of the thigh) injected with alloxan dissolved in isotonic salt solution of 0.9% w/v of NaCl (100 mg/kg body weight; groups “Alloxan+SkQ1” and “Alloxan.” Control animals were injected with salt solution without alloxan (groups “Control+SkQ1” and “Control”). After injection, the rats continued to drink water containing SkQ1 (250 nM) during 14 d (group “Alloxan+SkQ1”) or were kept without SkQ1 (group “Alloxan”). Data on glucose blood level was measured by the glucose oxidase method ([…] et al. (1958) J. Lab. Clin. Med., 51:445-460) after 2 weeks of alloxan injection. All data are presented as the mean+/-SE.

A further assay deals with ICAM-1 mRNA. The assay is described as follows: ICAM-1 mRNA level in aortas of old mice. The assay is classed as in vivo. Conditions: 24 months old C57Black/CBA mice; SkQ1 in drinking water for 7 months. The method, then:
As described above in Example 7A, above, the expression of ICAM-1 is elevated under many pathological vascular conditions. SkQ1 efficacy in reducing ICAM-1 expression in vivo was tested on mice. 30 hybrid male C57Black/CBA mice were divided into 3 experimental groups (10 animals in each group) at the beginning of the experiment. The group “Young mice” included mice at the age of 6 months. Groups “Old mice” and “Old mice, SkQ1” included mice at the age of 24 months. The group “Old mice, SkQ1” had free access to drinking water with 100 nM water-dissolved SkQ1 per 1 kg of body weight for 7 months. After this period, the animals were decapitated. Aortas were excised, and total RNA was isolated using […] Blood and Tissue kit (QIAGEN), reverse-transcribed into cDNA, and used for quantitative real-time PCR analysis of ICAM-1 mRNA level. For the normalization procedure the average geometry of expression levels of housekeeping genes GAPDH and RPL32 was used Data are shown as means±S.E.M.

The subject of assay [1] is full-thickness dermal wounds of db/db mice. The experiment in a line: Wound healing in db/db diabetic mice. The class given is in vivo. The conditions noted are these: SkQ1 in 20% glycerol, 250 nmol/kg per day, 10 to 12 weeks; 7 days after wounding. An excerpt: Wound healing was studied in two series using 6 months old C57BLKS-Leprdb/J mice (db/db) homozygous and heterozygous C57BLKS-Leprdb/J mice (db/+) mice. These mice are used as type II diabetes model with impaired wound healing (Michaels, et al. (2007) Wound Repair and Regeneration, 15:665-670).
The mice were daily administered 250 nmol/kg body weight per day with the pharmaceutical form of SkQ1 in 20% glycerol as described in Example 8) during period of time from 10 weeks to 12 weeks. Control groups of db/db and db/+ mice were not treated with SkQ1. Full-thickness dermal wounds were made under anesthesia of ketamine (80 mg/kg). Animals were kept in plastic cages under standard temperature, light, and feeding regimes. 7 days after wounding, animals were sacrificed by decapitation. The wounds were excised, fixed in 10% formalin in standard PBS buffer, histologically processed, and embedded in paraffin. Histological sections of central part of the wounds were cut and stained with hematoxylin and eosin. The sections were immunohistochemically stained for markers of endothelial cells (CD31), macrophages (f4/80), and myofibroblasts (smooth muscle α-actin). ImageJ software (National Institutes of Health (NIH) http:/rsb.info.nih.gov/ij/) was used to calculate total amount of cells, number of neutrophils, macrophages and vessel density (vessel area/granulation tissue area*100) on the microphotographs of wound sections. For each animal 100 mm^2 of section area was analyzed. Wound epithelization rate was assessed in % as ratio of epithelized wound area to total wound area on tissue section*100. For statistical analysis nonparametric Mann-Whitney U-test was used. Data are shown as means±S.E.M.

Assay [2] deals with collagen-induced arthritis. The experiment in a line: Collagen-induced arthritis (CIA). The class given is in vivo, Wistar rats. Conditions: SkQ1 in water 250 nmol/kg per day from day 14 or day 24 after collagen injection. The method, then:
Thirty Wistar rats with free food and water access were injected with complete Freund adjuvant and 250 mg type II collagen to induce CIA. Starting from 14 d and from 24 d after injection, two groups of 10 animals in each were daily fed with pharmaceutical form of SkQ1 in water comprising 250 nmol/kg body weight per day (groups “SkQ1 from day 14” and “SkQ1 from day 24”; Group “Control” received water without drugs).

A further assay has as its system db/db mice. The assay is described as follows: Hepatic TBA-reactive substance content (MDA) in db/db diabetic mice. The assay is classed as in vivo. Conditions: SkQ1 in 20% glycerol, 250 nmol/kg per day orally for 12 weeks. The method, then:
SkQ1 in 20% glycerol, as described below in Example 8 (250 nmol/kg per day) was orally administered to 10 to 12 week old homozygous db/db mice (n=8), while vehicle db/db (n=8) and non-diabetic control heterozygous db/++ (n=5) mice for 12 weeks. The hepatic TBA-reactive substance content (MDA) was determined by assay according to the method of Mihara et al. ((1978) Anal. Biochem., 86:271-278).

Consider `CC1=C(C)C(=O)C(CCCCCCCCCC[P+](c2ccccc2)(c2ccccc2)c2ccccc2)=CC1=O` [SkQ1], for which the “blood glucose, lower compared to animals without SkQ1 treatment” value in the assay on alloxan diabetes is reported as “about 2 fold”. In addition, in the assay with ICAM-1 mRNA, the “ICAM-1 mRNA levels in aorta of treated old mice compared to the control group” value is listed as “significantly lowered”. Further, in assay [1], the “neutrophil infiltration of wounds” value was “decreasing”, the “rate of epithelization of wounds” value is “increasing” and the “vascularization of wounds (vessel density)” value was “increasing”. Further, the “number of animals with apparent inflammation (increased paw volumes)” value in assay [2] was “reduced”. Moreover, the “MDA levels in the liver” value with db/db mice is “significantly lowered”.
